{"source": "patent US20250108100A1", "about": "“C-TERMINAL FRAGMENT OF APOLIPOPROTEIN E AND APPLICATION THEREOF IN INHIBITING y-SECRETASE ACTIVITY” (SYNPHATEC (SHANGHAI) BIOPHARMACEUTICAL TECHNOLOGY CO., LTD., priority 2022, published 2025)", "key": {"[1]": {"system": "ADAM10, BACE1, PS1 and PS2", "experiment": "mRNA (qRT-PCR) and protein (Western blot) expression of APP secretases in HEK 293T cells", "assay_type": "cell-based, human", "conditions": "qRT-PCR and Western blot, vs GFP control", "procedure": "(§1) • a) A plasmid expressing the target protein in mammalian cells was constructed, and the protein expression promoter is CAG. • b) The target protein was expressed in HEK 293T cell line. Cells were subcultured one day before transfection, and transfection was performed when the degree of cell adhesion reached 70%-80%. The transfection reagent was lipofectamine2000 (ThermoFisher). • c) 4-6 hours post transfection, the medium were replaced with fresh cell culture medium. • d) 36-48 hours post transfection, the cells were lysed (10% 1M tris-HCl (pH=6.8), 4% SDS, 20% glycerol, 0.01% bromophenol blue), and the protein samples were collected and used for Western blot or stored in a −80° C. freezer. • e) Polyacrylamide gel electrophoresis. Before protein loading, the protein was boiled at 98° C. for 10 min, and then centrifuged at 12000 rpm for 10 min. Electrophoresis: 80V for the upper stacking gel; 120V for the lower separating gel. • f) Protein transfer. […]\nQuantitect SYBR-Green qRT-PCR kit from Qiagen was used to quantitatively analyze the relative content of mRNA. qRT-PCR primers were listed in Table 2. […]"}, "[2]": {"system": "γ-secretase (PS1, PS2) knockout HEK 293T cells", "experiment": "PS1 KO, PS2 KO and PS1/2 dKO HEK 293T cell lines: α-CTF and Aβ40", "assay_type": "cell-based, human", "conditions": "PS1 and PS2 double knockout HEK 293T cells", "procedure": "as §1"}}}
{"substance": "ApoE2: human apolipoprotein E2, full-length 299 amino acid residues, SEQ ID NO: 12", "values": [{"measurement": "mRNA and protein expression of ADAM10, BACE1, PS1 and PS2", "setting": "[1]", "result": "not altered"}, {"measurement": "α-CTF in PS1/2 dKO cells", "setting": "[2]", "result": "did not further increase α-CTF levels"}]}
